Test results: US6919372B1, “Sustained release pharmaceutical compositions” (Yamanouchi Pharmaceutical Co., Ltd., priority 1997, dated 2005)
Structures can show the parent of a compound that is named as a salt.

Experiments:
Format in all cases: physicochemical
[1] = Test 1: effect of ratio of benzalkonium chloride added and pH on octanol/phosphate buffer partition coefficient of BPS
Protocol: (§1) BPS was dissolved in phosphate buffer solution having pH of 5 to 8 in a concentration of 240 μg/ml. Various cations were added to the mixtures to give equivalent charge to that of BPS or 5 times or 20 times more than that of BPS. The same volume of octanol as that of the aqueous phase was added to the mixture followed by shaking at 37° C. for an hour. After centrifugation, the concentration of the pharmaceutically active substance in the aqueous phase was measured to calculate the partition coefficient.
(§2) partition coefficient=concentration of the pharmaceutically active substance in the octanol phase/concentration of the pharmaceutically active substance in the aqueous phase

[2] = Test 2: octanol/phosphate buffer partition coefficient of BPS with various cations; details: for PC of BPS, Equimolar amount: cation added to give equal charge; for PC of BPS, Excess × 20: cation added to give charges 20 times more; for effect of added compound on the partition coefficient of BPS (in words): octanol/phosphate buffer pH 7, compared to no ionic compound added
Protocol: as §1, §2
A variety of cations were examined with their effect if these cations would affect the partition coefficient of BPS in octanol/phosphate buffer solution (pH 7).
The pharmaceutically active substance was dissolved in an aqueous phase in a concentration of 240 μg/ml. Various cations were added to the solution to give equal charge to that of the pharmaceutically active substance or charges 20 times more than that of the substance. Then the same procedure as in Test 1 was applied to calculate the partition coefficient.

[3] = Test 3: in vitro release test of gel preparation using various cations; details: 10 ml phosphate buffer solution (pH 7.4) at 37° C.
Protocol: Each of the gel preparations obtained in Examples 1 to 9 and Comparative Examples 1 to 3 was evaluated, respectively, with regard to the release of the active substance in 10 ml of a phosphate buffer solution (pH 7.4) at 37° C.

[4] = octanol/phosphate buffer pH 7, 37° C., BPS 240 μg/ml

Compound | PC of BPS, Equimolar amount [2, 4] | PC of BPS, Excess × 20 [2, 4] | effect of added compound on the partition coefficient of BPS (in words) [2] | other results
CC#CCC(C)[C@H](O)/C=C/[C@@H]1[C@H]2c3cccc(CCCC(=O)O)c3O[C@H]2C[C@H]1O (relative stereo) [BPS, (±)-(1R*,2R*,3aS*,8bS*)-2,3,3a,8b-tetrahydro-2-hydroxy-1-[(e)-(3S*)-3-hydroxy-4-methyl-1-octen-6-ynyl]-1H-cyclopenta[b]benzofuran-5-butanoic acid, reference compound] |  |  |  | partition coefficient of BPS as the pH increased ([1]; phosphate buffer pH 5 to 8, FIG. 1): decreased as the pH increased; PC of BPS, no cation added ([2]; octanol/phosphate buffer pH 7, 37° C., BPS 240 μg/ml, cation added: None): 16.2
CCCCCCCCCCCCCCCCCCCCCC[N+](C)(C)C.[Cl-] [Behenyltrimethylammonium chloride] | 59.5 |  |  | 
CC(C)(C)CC(C)(C)c1ccc(OCCOCC[N+](C)(C)Cc2ccccc2)cc1 [Benzethonium chloride] | 70.8 | 1180 |  | 
CCCCCCCCCCCCCCCC[N+](C)(C)C.[Cl-] [Cetyltrimethylammonium chloride] | 91.6 | 935 |  | 
CCCCCCCCCCCC[N+](C)(C)Cc1ccccc1.[Cl-] [Lauryldimethylbenzylammonium chloride] | 71.2 | 1220 |  | 
CCCCCCCCCCCC[n+]1ccccc1.[Cl-] [Laurylpyridinium chloride] | 75.0 | 1200 |  | 
CCCCCCCCCCCC[N+](C)(C)C.[Cl-] [Lauryltrimethylammonium chloride] | 83.5 | 985 | increase | 
CCN(CC)CC(=O)Nc1c(C)cccc1C [Lidocaine hydrochloride, reference compound] | 17.1 | 37.5 |  | 
CCCNC(C)(C)COC(=O)c1ccccc1 [Meprylcaine hydrochloride, reference compound] | 17.7 | 53.3 | increase | 
CCCCCCCCCCCCCC[N+](C)(C)Cc1ccccc1.[Cl-] [Myristyldimethylbenzylammonium chloride] | 64.5 | 1210 |  | 
CCCCCCCC[N+](C)(C)Cc1ccccc1.[Cl-] [Octyldimethylbenzylammonium chloride] | 60.9 | 568 |  | 
CC(=O)O.CCCCCCCC/C=C\CCCCCCCCN [Oleylamine acetate] | 30.4 | 473 |  | 
CC(=O)O.CCCCCCCCCCCCCCCCCCN [Stearylamine acetate] | 32.6 | 158 |  | 
CCCCCCCCCCCCCCCCCC[N+](C)(C)Cc1ccccc1.[Cl-] [Stearyldimethylbenzylammonium chloride] | 62.3 | 1350 |  | 
CCCCCCCCCCCCCCCCCC[N+](C)(C)C.[Cl-] [Stearyltrimethylammonium chloride] | 83.4 | 995 |  | 
CCCC[N+](CCCC)(CCCC)Cc1ccccc1.[Cl-] [Tributylbenzylammonium chloride] | 24.5 | 140 |  | 
CC[N+](CC)(CC)Cc1ccccc1.[Cl-] [Triethylbenzylammonium chloride] |  |  | increase | 
Cl.N=C(N)NCCC[C@H](N)C(=O)O [arginine hydrochloride, reference compound] |  |  | no increase | release of the active substance from gel preparation [3]: no delayed release
[Cl-].[Cl-].[Mg+2] [magnesium chloride, reference compound] |  |  | no increase | 
O=S(=O)([O-])[O-].[Mg+2] [magnesium sulfate] |  |  |  | release of the active substance from gel preparation [3]: no delayed release
[Cl-].[Na+] [sodium chloride] |  |  |  | partition coefficient of BPS when sodium chloride was added to make the solution isotonic ([1]; 20 times of equivalent molar ratio of benzalkonium chloride included): decreased
CCCCCCCCCCCCOS(=O)(=O)[O-].[Na+] [sodium lauryl sulfate, reference compound] |  |  | no change | 
protamine sulfate [reference compound] |  |  | did not affect | 
sorbitan sesquioleate [reference compound] |  |  | no change | 
